Data reported in article PMC4476283 (Biochemistry, 2015).
Values after ≈ are worked out from the molar mass of the structure shown. Marks after values point to notes of the source that are not given here.

What was measured:
OXA-225 (OXA-23 P225S) = OXA-225 (OXA-23 P225S) (Acinetobacter baumannii, UniProt Q9L4P2, P225S); assay: Steady-state kinetic analysis of β-lactam hydrolysis by OXA-225; format: biochemical; details: for kcat / Km / Ks (competition kinetics with ampicillin as reporter substrate): OXA-225; for Km: 50 mM NaH2PO4, 25 mM NaHCO3, pH 7.4, 25°C; for Ks (competition kinetics with ampicillin as reporter substrate): from IC50 by Cheng-Prusoff
OXA-24/40 = details: ref Kaitany et al. [13], cited from earlier work; for Km: 50 mM NaH2PO4, 25 mM NaHCO3, pH 7.4, 25°C; for Ks (competition kinetics with ampicillin as reporter substrate): from IC50 by Cheng-Prusoff
OXA-23 = details: ref Kaitany et al. [13], cited from earlier work; for Km: 50 mM NaH2PO4, 25 mM NaHCO3, pH 7.4, 25°C; for Ks (competition kinetics with ampicillin as reporter substrate): from IC50 by Cheng-Prusoff
[1] = test system: OXA-160 (OXA-24/40 P227S); format: biochemical, Acinetobacter baumannii; details: for kcat / Km / Ks (competition kinetics with ampicillin as reporter substrate): OXA-160; for Km: 50 mM NaH2PO4, 25 mM NaHCO3, pH 7.4, 25°C; for Ks (competition kinetics with ampicillin as reporter substrate): from IC50 by Cheng-Prusoff
[2] = test system: A. baumannii strain that yielded OXA-160; details: A. baumannii strain from which OXA-160 was derived; cited from earlier work
[3] = conversion of OXA-24/40 to OXA-160

Compound	kcat (OXA-225 (OXA-23 P225S)) [s⁻¹]	Km (OXA-225 (OXA-23 P225S)) [µM]	gain (increase) in kcat/Km from the P→S substitution (OXA-225 (OXA-23 P225S); OXA-225 compared to OXA-23)	Km (OXA-24/40) [µM]	kcat (OXA-24/40) [s⁻¹]	Km (OXA-23) [µM]	kcat (OXA-23) [s⁻¹]	kcat [1] [s⁻¹]	Km [1] [µM]	gain in kcat/Km from the P→S substitution ([1]; OXA-160 compared to OXA-24/40)	MIC [2] [µg/mL]	hydrolytic activity (in words) (OXA-24/40)	hydrolytic activity (in words) (OXA-23)	Ks (competition kinetics with ampicillin as reporter substrate) (OXA-225 (OXA-23 P225S))	Ks (competition kinetics with ampicillin as reporter substrate) (OXA-24/40)	Ks (competition kinetics with ampicillin as reporter substrate) (OXA-23)	Ks (competition kinetics with ampicillin as reporter substrate) [1]	increase in kcat/Km [1, 3] [%]	decrease in kcat/Km [1, 3] [%]
CC1(C)S[C@@H]2[C@H](NC(=O)[C@H](N)c3ccccc3)C(=O)N2[C@H]1C(=O)O [Ampicillin, ampicillin]	150 ± 10	12 ± 1	~ 2 fold	180 ± 20	480 ± 20	82 ± 9	460 ± 10	93 ± 2	13 ± 1	~ 3 fold	–	–	–	–	–	–	–	–	–
C[C@H]1[C@H](NC(=O)/C(=N\OC(C)(C)C(=O)O)c2csc(N)n2)C(=O)N1S(=O)(=O)O [Aztreonam, aztreonam]	0.79 ± 0.03	13 ± 2	–	> 1500	>0.3	2400	0.24 ± 0.01	2.7 ± 0.2	–	–	128 (≈ 294 µM)	–	–	–	–	–	–	–	–
CO/N=C(\C(=O)N[C@@H]1C(=O)N2C(C(=O)O)=C(COC(C)=O)CS[C@H]12)c1csc(N)n1 [Cefotaxime, cefotaxime]	3.2 ± 0.2	100 ± 20	–	750 ± 70	0.38 ± 0.01	340 ± 30	5.5 ± 0.1	0.41 ± 0.01	170 ± 5	–	–	–	–	–	–	–	–	–	–
CC(C)(O/N=C(\C(=O)N[C@@H]1C(=O)N2C(C(=O)[O-])=C(C[n+]3ccccc3)CS[C@H]12)c1csc(N)n1)C(=O)O [Ceftazidime, ceftazidime]	1.4 ± 0.1	1400	–	–	<0.02	–	<0.02	>0.80	> 3000	–	–	no activity	no activity	–	–	–	–	–	–
CO/N=C(\C(=O)N[C@@H]1C(=O)N2C(C(=O)O)=C(CSc3nc(=O)c(=O)[nH]n3C)CS[C@H]12)c1csc(N)n1 [Ceftriaxone, ceftriaxone]	0.051 ± 0.002	–	–	110 ± 10	0.035 ± 0.001	5.4 ± 0.5	0.021 ± 0.001	0.24 ± 0.01	14 ± 0.8	–	–	–	–	0.48 ± 0.05 ^b µM	–	–	–	–	–
C[C@@H](O)[C@H]1C(=O)N2C(C(=O)O)=C(S[C@@H]3CN[C@H](CNS(N)(=O)=O)C3)[C@H](C)[C@H]12 [Doripenem, doripenem]	0.026 ± 0.002	–	–	–	0.074 ± 0.001	–	0.028 ± 0.003	0.064 ± 0.001	–	–	–	–	–	0.027 ± 0.005 ^b µM	0.024 ± 0.003 ^b µM	0.018 ± 0.002 ^b µM	0.014 ± 0.003 ^b µM	40	–
C[C@@H](O)[C@H]1C(=O)N2C(C(=O)O)=C(SCCN=CN)C[C@H]12 [Imipenem, imipenem]	0.39 ± 0.01	–	–	–	2.1 ± 0.1	–	0.49 ± 0.01	0.12 ± 0.01	–	–	–	–	–	0.20 ± 0.02 ^b µM	0.68 ± 0.09 ^b µM	0.20 ± 0.02 ^b µM	0.043 ± 0.005 ^b µM	–	10
CO/N=C(\C(=O)N[C@@H]1C(=O)N2C(C(=O)[O-])=C(C[N+]3(C)CCCC3)CS[C@H]12)c1csc(N)n1 [cefepime]	–	–	–	–	–	–	–	–	–	–	64 (≈ 133 µM)	–	–	–	–	–	–	–	–
C[C@@H](O)[C@H]1C(=O)N2C(C(=O)O)=C(S[C@@H]3CN[C@H](C(=O)N(C)C)C3)[C@H](C)[C@H]12 [meropenem]	–	–	–	–	–	–	–	–	–	–	16 (≈ 41.7 µM)	–	–	–	–	–	–	–	–
